Experimental findings from US10550112B2, “Pyrimidines as EGFR inhibitors and methods of treating disorders” (Dana-Farber Cancer Institute, Inc., priority 2015, dated 2020) are described below.

pEC50: −log10 of the molar value.

Common to all, as to type: cell-based, Murine
The target of experiment [1] is EGFR wild type Ba/F3 cell line (Homo sapiens, UniProt P00533, cells depend on it, form not given). Kind of experiment: Ba/F3 cell proliferation MTS assay, EGFR wild type. The conditions noted are these: 72 hours. On the technique in general: Tetrazolium assays rely on reduction of a dye to a coloured formazan, in cell work by metabolically active cells.
Sequence of EGFR wild type Ba/F3 cell line (P00533 whole entry, stated change not applied): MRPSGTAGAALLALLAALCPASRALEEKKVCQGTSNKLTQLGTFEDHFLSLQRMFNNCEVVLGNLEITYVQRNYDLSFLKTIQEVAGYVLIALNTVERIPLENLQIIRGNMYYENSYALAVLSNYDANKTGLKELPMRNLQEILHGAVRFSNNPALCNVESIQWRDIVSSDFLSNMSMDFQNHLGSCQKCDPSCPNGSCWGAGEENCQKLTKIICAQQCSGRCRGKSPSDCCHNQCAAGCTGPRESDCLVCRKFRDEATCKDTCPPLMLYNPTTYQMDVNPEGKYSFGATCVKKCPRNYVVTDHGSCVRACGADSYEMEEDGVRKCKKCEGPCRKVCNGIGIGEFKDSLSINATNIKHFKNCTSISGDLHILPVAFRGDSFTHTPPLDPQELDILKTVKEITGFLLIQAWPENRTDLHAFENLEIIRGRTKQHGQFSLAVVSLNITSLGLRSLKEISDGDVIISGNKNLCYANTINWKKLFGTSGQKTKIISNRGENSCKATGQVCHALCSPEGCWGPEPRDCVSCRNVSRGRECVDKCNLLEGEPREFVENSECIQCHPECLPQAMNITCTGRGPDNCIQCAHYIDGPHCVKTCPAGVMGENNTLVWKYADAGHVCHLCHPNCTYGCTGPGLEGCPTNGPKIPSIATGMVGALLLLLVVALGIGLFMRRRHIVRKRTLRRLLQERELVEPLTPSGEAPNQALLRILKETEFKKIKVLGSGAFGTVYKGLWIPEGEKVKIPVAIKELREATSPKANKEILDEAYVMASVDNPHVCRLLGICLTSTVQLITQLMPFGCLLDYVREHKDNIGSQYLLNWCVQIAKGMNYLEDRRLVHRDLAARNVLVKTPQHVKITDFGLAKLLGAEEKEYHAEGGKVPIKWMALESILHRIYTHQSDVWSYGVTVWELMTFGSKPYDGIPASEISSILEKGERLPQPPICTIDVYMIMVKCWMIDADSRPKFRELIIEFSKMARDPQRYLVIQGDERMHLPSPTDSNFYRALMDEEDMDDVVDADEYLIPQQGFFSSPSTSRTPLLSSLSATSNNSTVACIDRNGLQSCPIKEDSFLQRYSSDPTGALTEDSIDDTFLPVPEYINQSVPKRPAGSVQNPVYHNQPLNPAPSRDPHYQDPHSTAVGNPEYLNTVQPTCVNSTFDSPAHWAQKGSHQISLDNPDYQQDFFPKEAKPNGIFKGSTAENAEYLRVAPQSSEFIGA
For experiment [2], the target named is EGFR InsSVD Ba/F3 cell line (Homo sapiens, UniProt P00533, DUP768-770, cells depend on it). The experiment in a line: Ba/F3 cell proliferation MTS assay, EGFR InsSVD. The conditions noted are these: EGFR InsSVD (D770_N771insSVD) Ba/F3 cells, 72 hours.
Sequence of EGFR InsSVD Ba/F3 cell line (P00533 with tags, fused parts or gaps DUP768-770): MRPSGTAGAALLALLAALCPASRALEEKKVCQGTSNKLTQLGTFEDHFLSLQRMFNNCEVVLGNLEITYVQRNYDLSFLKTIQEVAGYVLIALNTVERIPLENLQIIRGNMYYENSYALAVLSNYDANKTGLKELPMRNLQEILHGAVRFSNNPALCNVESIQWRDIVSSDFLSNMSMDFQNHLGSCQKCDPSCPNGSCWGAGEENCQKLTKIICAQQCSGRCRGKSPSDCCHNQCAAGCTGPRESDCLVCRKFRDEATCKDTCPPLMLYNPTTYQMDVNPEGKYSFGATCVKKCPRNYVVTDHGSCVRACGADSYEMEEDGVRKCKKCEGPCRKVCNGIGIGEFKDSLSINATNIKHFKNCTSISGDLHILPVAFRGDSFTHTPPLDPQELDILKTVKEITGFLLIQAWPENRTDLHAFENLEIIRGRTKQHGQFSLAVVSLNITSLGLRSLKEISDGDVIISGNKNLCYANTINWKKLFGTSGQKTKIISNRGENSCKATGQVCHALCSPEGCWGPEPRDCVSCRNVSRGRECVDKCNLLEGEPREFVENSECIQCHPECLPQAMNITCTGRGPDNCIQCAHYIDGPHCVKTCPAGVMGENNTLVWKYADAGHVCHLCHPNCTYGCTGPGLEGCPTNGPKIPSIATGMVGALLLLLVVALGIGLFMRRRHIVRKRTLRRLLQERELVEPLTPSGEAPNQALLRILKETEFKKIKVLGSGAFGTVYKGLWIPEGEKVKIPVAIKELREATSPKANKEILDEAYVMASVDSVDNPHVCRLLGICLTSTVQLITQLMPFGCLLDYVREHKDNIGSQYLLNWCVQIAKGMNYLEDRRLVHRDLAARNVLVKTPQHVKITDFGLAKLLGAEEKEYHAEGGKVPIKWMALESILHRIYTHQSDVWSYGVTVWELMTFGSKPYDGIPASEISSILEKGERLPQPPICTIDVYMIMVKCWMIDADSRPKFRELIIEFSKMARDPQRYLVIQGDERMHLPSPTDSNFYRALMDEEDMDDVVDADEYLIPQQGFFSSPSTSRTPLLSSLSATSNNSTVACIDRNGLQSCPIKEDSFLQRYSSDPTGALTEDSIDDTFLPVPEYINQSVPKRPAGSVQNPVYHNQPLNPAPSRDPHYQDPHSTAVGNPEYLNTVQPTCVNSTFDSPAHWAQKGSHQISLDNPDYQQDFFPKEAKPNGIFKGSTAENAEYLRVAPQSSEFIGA
Procedure: (§1) Different EGFR exon 20 insertion mutations were introduced via site directed mutagenesis into full length EGFR using the Quick Change Site-Directed Mutagenesis kit (Stratagene; La Jolla, Calif.) according to the manufacturer's instructions. All constructs were confirmed by DNA sequencing. The constructs were shuttled into the retroviral vector JP1540 using the BD Creator™ System (BD Biosciences). […] Stable clones were obtained by selection in puromycin (2 μg/ml) and growth in IL-3 free media.
(§2) Murine Ba/F3 cells engineered to express mutant and wild type EGFR or HER2 protein were used to perform single drug screens. Cell viability was assessed after 72 hours of compound exposure using the colorimetric cell proliferation MTS assay kit (Promega).
(§3) The curves were fitted using a non-linear regression model with a sigmoidal dose response.
Experiment [3] has as its target HER2 InsYVMA Ba/F3 cell line (Homo sapiens, UniProt P04626, DUP772-775, cells depend on it). Kind of experiment: Ba/F3 cell proliferation MTS assay, HER2 InsYVMA.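 Further: murine Ba/F3 cells engineered to carry mutant HER2, viability read colorimetrically by MTS after 72 h of exposure, EC50 from sigmoidal non-linear regression of dose response.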 The note with it: 72 hours.
Procedure: as §2, §3
The target in experiment [4] is EGFR InsASV Ba/F3 cell line (Homo sapiens, UniProt P00533, DUP767-769, cells depend on it). The experiment in a line: Ba/F3 cell proliferation MTS assay, EGFR InsASV. The conditions noted are these: EGFR InsASV (V769_D770insASV) Ba/F3 cells, 72 hours.
Sequence of EGFR InsASV Ba/F3 cell line (P00533 with tags, fused parts or gaps DUP767-769): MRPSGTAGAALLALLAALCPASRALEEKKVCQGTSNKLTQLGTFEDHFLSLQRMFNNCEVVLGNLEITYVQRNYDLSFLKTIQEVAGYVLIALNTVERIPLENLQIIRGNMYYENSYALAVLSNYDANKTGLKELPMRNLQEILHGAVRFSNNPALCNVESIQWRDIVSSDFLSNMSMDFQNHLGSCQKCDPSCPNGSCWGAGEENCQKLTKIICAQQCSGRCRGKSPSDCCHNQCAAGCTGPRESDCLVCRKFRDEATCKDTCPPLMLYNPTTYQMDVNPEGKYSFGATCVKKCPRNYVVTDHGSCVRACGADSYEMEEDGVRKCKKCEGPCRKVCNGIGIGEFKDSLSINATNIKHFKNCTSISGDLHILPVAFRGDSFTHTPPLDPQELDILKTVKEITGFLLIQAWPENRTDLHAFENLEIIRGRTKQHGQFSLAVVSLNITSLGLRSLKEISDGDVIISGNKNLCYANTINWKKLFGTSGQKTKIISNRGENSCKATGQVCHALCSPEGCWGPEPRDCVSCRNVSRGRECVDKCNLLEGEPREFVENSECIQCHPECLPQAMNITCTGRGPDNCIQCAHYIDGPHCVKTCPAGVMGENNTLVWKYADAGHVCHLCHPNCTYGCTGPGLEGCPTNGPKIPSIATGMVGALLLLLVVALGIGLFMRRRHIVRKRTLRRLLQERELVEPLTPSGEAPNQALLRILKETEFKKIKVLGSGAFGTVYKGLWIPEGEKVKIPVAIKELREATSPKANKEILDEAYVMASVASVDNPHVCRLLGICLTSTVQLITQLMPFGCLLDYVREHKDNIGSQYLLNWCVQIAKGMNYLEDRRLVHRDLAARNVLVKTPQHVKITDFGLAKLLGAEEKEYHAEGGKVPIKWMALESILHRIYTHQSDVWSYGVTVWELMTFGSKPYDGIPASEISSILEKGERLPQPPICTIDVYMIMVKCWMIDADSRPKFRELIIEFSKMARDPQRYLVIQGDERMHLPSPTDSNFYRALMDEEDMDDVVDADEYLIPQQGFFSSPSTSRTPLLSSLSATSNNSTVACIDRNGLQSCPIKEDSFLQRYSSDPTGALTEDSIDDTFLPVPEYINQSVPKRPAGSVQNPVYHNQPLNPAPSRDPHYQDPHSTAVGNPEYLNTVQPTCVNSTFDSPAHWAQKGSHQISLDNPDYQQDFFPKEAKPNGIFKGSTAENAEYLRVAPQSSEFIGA
Procedure: as §1, §2, §3
Experiment [5] concerns the target EGFR InsGY Ba/F3 cell line (Homo sapiens, UniProt P00533, DELINS770-770GY, cells depend on it). The experiment in a line: Ba/F3 cell proliferation MTS assay, EGFR InsGY. The conditions noted are these: EGFR InsGY (D770delinsGY) Ba/F3 cells, 72 hours.
Procedure: as §1, §2, §3
The target of experiment [6] is HER2 wild type Ba/F3 cell line (Homo sapiens, UniProt P04626). The experiment in a line: Ba/F3 cell proliferation MTS assay, HER2 wild type. The note with it: HER2 wild type Ba/F3 cells, 72 hours.
Procedure: as §2, §3

Sequence of HER2 InsYVMA Ba/F3 cell line (P04626 with tags, fused parts or gaps DUP772-775): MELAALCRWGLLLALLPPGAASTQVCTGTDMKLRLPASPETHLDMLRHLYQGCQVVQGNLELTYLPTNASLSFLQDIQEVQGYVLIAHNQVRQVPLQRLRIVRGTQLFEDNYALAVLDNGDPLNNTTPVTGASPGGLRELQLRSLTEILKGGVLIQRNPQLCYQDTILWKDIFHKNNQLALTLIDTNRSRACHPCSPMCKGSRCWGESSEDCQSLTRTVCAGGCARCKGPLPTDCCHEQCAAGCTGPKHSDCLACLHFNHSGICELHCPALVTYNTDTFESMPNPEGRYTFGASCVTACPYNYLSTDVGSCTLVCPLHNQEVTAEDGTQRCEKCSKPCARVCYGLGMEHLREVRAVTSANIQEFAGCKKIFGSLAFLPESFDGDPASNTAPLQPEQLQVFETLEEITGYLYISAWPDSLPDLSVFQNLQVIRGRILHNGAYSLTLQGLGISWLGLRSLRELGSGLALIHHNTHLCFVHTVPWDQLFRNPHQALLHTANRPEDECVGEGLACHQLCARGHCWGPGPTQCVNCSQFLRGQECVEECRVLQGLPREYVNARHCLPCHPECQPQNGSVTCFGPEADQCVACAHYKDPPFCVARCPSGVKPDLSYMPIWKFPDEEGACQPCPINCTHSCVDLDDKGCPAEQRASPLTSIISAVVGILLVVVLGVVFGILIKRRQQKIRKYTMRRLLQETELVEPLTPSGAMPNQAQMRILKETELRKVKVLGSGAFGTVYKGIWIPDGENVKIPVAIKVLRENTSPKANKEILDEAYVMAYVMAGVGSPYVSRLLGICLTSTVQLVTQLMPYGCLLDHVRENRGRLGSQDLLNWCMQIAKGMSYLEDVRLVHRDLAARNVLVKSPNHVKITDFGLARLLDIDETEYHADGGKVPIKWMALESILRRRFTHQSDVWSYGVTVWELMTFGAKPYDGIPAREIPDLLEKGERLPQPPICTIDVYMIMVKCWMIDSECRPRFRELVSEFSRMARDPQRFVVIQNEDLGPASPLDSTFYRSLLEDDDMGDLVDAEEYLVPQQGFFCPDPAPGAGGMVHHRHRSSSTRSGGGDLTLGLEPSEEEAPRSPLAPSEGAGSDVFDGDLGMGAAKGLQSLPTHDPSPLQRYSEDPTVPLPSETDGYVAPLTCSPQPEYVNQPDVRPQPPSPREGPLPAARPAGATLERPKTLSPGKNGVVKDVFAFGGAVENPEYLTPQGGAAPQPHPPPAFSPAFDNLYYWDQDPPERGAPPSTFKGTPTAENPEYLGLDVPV

Usually pEC50 stands for −log10 of the EC50, conventionally taken in molar units. As to `C=CC(=O)Nc1cccc(N(C(=O)OCc2ccccc2)c2ccnc(Nc3ccn(C)n3)n2)c1` [Compound I-1, benzyl (3-acrylamidophenyl)(2-((1-methyl-1H-pyrazol-3-yl)amino)pyrimidin-4-yl)carbamate], the pEC50 was greater than 7.00 in experiment [1]; greater than 7.00 in experiment [2]; greater than 7.00 in experiment [3]; 6.30 to 7.00 in experiment [4]; greater than 7.00 in experiment [5]; greater than 7.00 in experiment [6].
Regarding `C=CC(=O)Nc1cccc(N(C(=O)OCc2ccc(Cl)cc2)c2ccnc(Nc3ccn(C)n3)n2)c1` [Compound I-8, 4-chlorobenzyl (3-acrylamidophenyl)(2-((1-methyl-1H-pyrazol-3-yl)amino)pyrimidin-4-yl)carbamate], the negative logarithm of the EC50 (pEC50) in experiment [1] is 6.30 to 7.00; in experiment [2], less than 6.00; in experiment [3] it was less than 6.00; in experiment [4], less than 6.00; in experiment [5], 6.30 to 7.00; in experiment [6], 6.30 to 7.00.
Turning to `C=CC(=O)Nc1cccc(N(C(=O)OCc2ccc(Cl)cc2)c2ccnc(Nc3cnn(C)c3)n2)c1` [Compound I-9, 4-chlorobenzyl (3-acrylamidophenyl)(2-((1-methyl-1H-pyrazol-4-yl)amino)pyrimidin-4-yl)carbamate], the pEC50 in experiment [1] is greater than 7.00; in experiment [2], 6.30 to 7.00; in experiment [3] it was 6.30 to 7.00; in experiment [4] it was 6.00 to 6.30; in experiment [5], 6.30 to 7.00; in experiment [6], greater than 7.00.
With `C=CC(=O)Nc1cccc(N(C(=O)OCc2ccc(F)cn2)c2ccnc(Nc3ccn(C)n3)n2)c1` [Compound I-10, (5-fluoropyridin-2-yl)methyl (3-acrylamidophenyl)(2-((1-methyl-1H-pyrazol-3-yl)amino)pyrimidin-4-yl)carbamate], the pEC50 in experiment [1] was greater than 7.00; in experiment [2] it was 6.30 to 7.00; in experiment [3] it was 6.00 to 6.30; in experiment [4] it was 6.00 to 6.30; in experiment [5] it was 6.00 to 6.30; in experiment [6] it was 6.30 to 7.00.
For `C=CC(=O)Nc1cccc(N(C(=O)OCc2ccc(F)cn2)c2ccnc(Nc3cnn(C)c3)n2)c1` [Compound I-11, (5-fluoropyridin-2-yl)methyl (3-acrylamidophenyl)(2-((1-methyl-1H-pyrazol-4-yl)amino)pyrimidin-4-yl)carbamate], the pEC50 in experiment [1] is greater than 7.00; in experiment [2], 6.00 to 6.30; in experiment [3], 6.00 to 6.30; in experiment [4], less than 6.00; in experiment [5], 6.00 to 6.30; in experiment [6], 6.30 to 7.00.
As to `C=CC(=O)Nc1cccc(N(C(=O)OCc2ccc(F)nc2)c2ccnc(Nc3ccn(C)n3)n2)c1` [Compound I-12, (6-fluoropyridin-3-yl)methyl (3-acrylamidophenyl)(2-((1-methyl-1H-pyrazol-3-yl)amino)pyrimidin-4-yl)carbamate], the pEC50 is 6.30 to 7.00 in experiment [1]; 6.00 to 6.30 in experiment [2]; less than 6.00 in experiment [3]; less than 6.00 in experiment [4]; 6.00 to 6.30 in experiment [5]; 6.30 to 7.00 in experiment [6].
`C=CC(=O)Nc1cccc(N(C(=O)OCc2ccc(F)nc2)c2ccnc(Nc3cnn(C)c3)n2)c1` [Compound I-13, (6-fluoropyridin-3-yl)methyl (3-acrylamidophenyl)(2-((1-methyl-1H-pyrazol-4-yl)amino)pyrimidin-4-yl)carbamate]: the pEC50 is 6.30 to 7.00 in experiment [1]; less than 6.00 in experiment [2]; less than 6.00 in experiment [3]; less than 6.00 in experiment [4]; less than 6.00 in experiment [5]; 6.30 to 7.00 in experiment [6].
In the case of `C=CC(=O)Nc1cccc(N(C(=O)O[C@H](C)c2ccc(F)cc2)c2ccnc(Nc3ccn(C)n3)n2)c1` [Compound I-14, (R)-1-(4-fluorophenyl)ethyl (3-acrylamidophenyl)(2-((1-methyl-1H-pyrazol-3-yl)amino)pyrimidin-4-yl)carbamate], the pEC50 was 6.30 to 7.00 in experiment [1]; 6.00 to 6.30 in experiment [2]; less than 6.00 in experiment [4]; 6.00 to 6.30 in experiment [5]; 6.00 to 6.30 in experiment [6].
On to `C=CC(=O)Nc1cccc(N(C(=O)O[C@H](C)c2ccc(F)cc2)c2ccnc(Nc3cnn(C)c3)n2)c1` [Compound I-15, (R)-1-(4-fluorophenyl)ethyl (3-acrylamidophenyl)(2-((1-methyl-1H-pyrazol-4-yl)amino)pyrimidin-4-yl)carbamate], for which the pEC50 was greater than 7.00 in experiment [1]; greater than 7.00 in experiment [2]; 6.30 to 7.00 in experiment [3]; 6.30 to 7.00 in experiment [4]; greater than 7.00 in experiment [5]; greater than 7.00 in experiment [6].
Turning to `C=CC(=O)Nc1cccc(N(C(=O)O[C@@H](C)c2ccc(F)cc2)c2ccnc(Nc3ccn(C)n3)n2)c1` [Compound I-16, (S)-1-(4-fluorophenyl)ethyl (3-acrylamidophenyl)(2-((1-methyl-1H-pyrazol-3-yl)amino)pyrimidin-4-yl)carbamate], the pEC50 in experiment [1] was greater than 7.00; in experiment [2], 6.30 to 7.00; in experiment [3] it was 6.00 to 6.30; in experiment [4] it was 6.00 to 6.30; in experiment [5] it was 6.30 to 7.00; in experiment [6], greater than 7.00.
In the case of `C=CC(=O)Nc1cccc(N(C(=O)O[C@@H](C)c2ccc(F)cc2)c2ccnc(Nc3cnn(C)c3)n2)c1` [Compound I-17, (S)-1-(4-fluorophenyl)ethyl (3-acrylamidophenyl)(2-((1-methyl-1H-pyrazol-4-yl)amino)pyrimidin-4-yl)carbamate], the pEC50 in experiment [1] is greater than 7.00; in experiment [2], greater than 7.00; in experiment [3] it was greater than 7.00; in experiment [4], 6.30 to 7.00; in experiment [5], greater than 7.00; in experiment [6], greater than 7.00.
With `C=CC(=O)Nc1cccc(N(C(=O)OCc2csc3ccccc23)c2ccnc(Nc3cnn(C)c3)n2)c1` [Compound I-19, benzo[b]thiophen-3-ylmethyl (3-acrylamidophenyl)(2-((1-methyl-1H-pyrazol-4-yl)amino)pyrimidin-4-yl)carbamate], the pEC50 in experiment [1] is 6.30 to 7.00; in experiment [2], less than 6.00; in experiment [3], less than 6.00; in experiment [4] it was less than 6.00; in experiment [5], less than 6.00; in experiment [6], 6.30 to 7.00.
